From the NIST ThermoML archive (doi:10.1016/j.jct.2019.04.017)
Numbers after ± are expanded uncertainties.

Tests used:
[1] = 96 kPa, Liquid; for viscosity: Cone and plate viscometry; for electrical conductivity: Frequency=0.001 MHz, Alternating current cell with electrodes
[2] = xn = mol fraction of the nth substance listed; settings: 96 kPa, Liquid, Cone and plate viscometry, x2 = 0

| viscosity ([1]; 288.1 K) [mPa·s] | electrical conductivity ([1]; 288.1 K) [S/m] | electrical conductivity ([1]; 293.1 K) [S/m] | viscosity ([1]; 298.1 K) [mPa·s] | electrical conductivity ([1]; 298.1 K) [S/m] | electrical conductivity ([1]; 303.1 K) [S/m] | viscosity ([1]; 308.1 K) [mPa·s] | electrical conductivity ([1]; 308.1 K) [S/m] | electrical conductivity ([1]; 313.1 K) [S/m] | viscosity ([1]; 318.1 K) [mPa·s] | electrical conductivity ([1]; 318.1 K) [S/m] | electrical conductivity ([1]; 323.1 K) [S/m] | viscosity ([1]; 328.1 K) [mPa·s] | electrical conductivity ([1]; 328.1 K) [S/m] | viscosity ([2]; 288.1 K) [mPa·s] | viscosity ([2]; 298.1 K) [mPa·s] | viscosity ([2]; 308.1 K) [mPa·s] | viscosity ([2]; 318.1 K) [mPa·s] | viscosity ([2]; 328.1 K) [mPa·s] | SMILES |
| --- | --- | --- | --- | --- | --- | --- | --- | --- | --- | --- | --- | --- | --- | --- | --- | --- | --- | --- | --- |
| 15.35 ± 1 | 0.000222 ± 8.8e-06 | 0.000241 ± 9.5e-06 | 10.32 ± 0.67 | 0.000267 ± 1.1e-05 | 0.000297 ± 1.2e-05 | 8.17 ± 0.53 | 0.00032 ± 1.3e-05 | 0.000356 ± 1.4e-05 | 6.08 ± 0.39 | 0.000382 ± 1.5e-05 | 0.000423 ± 1.7e-05 | 4.91 ± 0.32 | 0.000444 ± 1.8e-05 |  |  |  |  |  | C1CCC2=NCCCN2CC1 [1,8-diaza-7-bicyclo[5.4.0]undecene] |
| 2180 ± 380 |  |  | 933.8 ± 110 |  |  | 420.3 ± 39 |  |  | 195.6 ± 15 |  |  | 104.3 ± 7.3 |  |  |  |  |  |  | OCC(O)CO [glycerol] |
|  |  |  |  |  |  |  |  |  |  |  |  |  |  | 2180 ± 380 | 933.8 ± 110 | 420.3 ± 39 | 195.6 ± 15 | 104.3 ± 7.3 | OCC(O)CO [glycerol] + C1CCC2=NCCCN2CC1 |
